System: tubulin
Assay: Tubulin Polymerization assay (fluorescence kit)
Type: biochemical
Description: Analysis of tubulin polymerization was performed using the Tubulin Polymerization Assay Kit (Cytoskeleton, USA) according to manufacturer's instructions. The assay is fluorescence-based and tubulin polymerization was followed by measuring RFU (relative fluorescence units) on the SpectraFluor Plus (Tecan, Switzerland) using the following filters: excitation 360 nm, emission 465 nm.

**Q.** With COc1ccc(-c2c(-c3cc(Cl)c(OC)c(OC)c3)ncn2C)cc1N [compound 5b, 1-methyl-5-(3-amino-4-methoxyphenyl)-4-(3-chloro-4,5-dimethoxyphenyl)-imidazole] as the molecule, how does the “inhibition of tubulin polymerization” value read?
**A.** The value was “effectively inhibits the polymerization of tubulin”.

Source: patent US8980933B2, “Combretastatin analogs for use in the treatment of cancer” (Universitat Bayreuth, priority 2010, dated 2015)
